Reference: publication PMC7306133 (Diabetes, 2020)
Where a SMILES comes first, the peptide text is derived from it. Where no end group is shown, it is not given here.

Columns and labels:
[1] = system: CD4+ T cells in peripheral blood of subjects with T1D; experiment: Ex vivo tetramer analysis of T-cell frequency; assay type: cell-based, human; details: DR0401 tetramers, ex vivo enrichment
[2] = system: HIP-specific T-cell clones; experiment: Proliferation of HIP-specific T-cell clones in response to human islet fractions; assay type: cell-based; details: label = specificity of the clone; compared with the unpulsed control condition
[3] = biological target: HLA-DRB1*04:01 (DR0401) protein (Homo sapiens, UniProt P01903+P01911, A100K/A169T/F76Y/I96L/K127E/L162R/M171V/N62H/P40V/Q125Y/R42H/S133A/S149N/S66Y/V115G/V209L/W38E); experiment: DR0401 peptide binding competition assay

Compound: CC[C@H](C)[C@H](N)C(=O)N[C@@H](CS)C(=O)N[C@@H](CO)C(=O)N[C@@H](CC(C)C)C(=O)N[C@@H](Cc1ccc(O)cc1)C(=O)N[C@@H](CCC(N)=O)C(=O)N[C@@H](CC(C)C)C(=O)N[C@@H](CCC(=O)O)C(=O)N[C@@H](Cc1ccccc1)C(=O)N[C@H](C(=O)N[C@@H](CC(N)=O)C(=O)N[C@@H](CCC(N)=O)C(=O)N[C@@H](Cc1c[nH]cn1)C(=O)N[C@@H](CC(C)C)C(=O)N[C@@H](CS)C(=O)NCC(=O)O)C(C)C [HIP-4.4] (H-ICSLYQLEFVNQHLCG-OH; N-terminus and C-terminus assumed)
- Average frequency of HIP-reactive T cells [1]: 8 cells per million CD4+ T cells
- Proliferation of the HIP-reactive clone in response to human islets (in words) [2]: not above the unpulsed control condition

Compound: CSLYQLENSVPHFSDE [HIP-4.39]
- IC50 [3]: 240 nM

Compound: HLVEALYLEELVARSE [HIP-4.2]
- IC50 [3]: 440 nM

Compound: QPLALEGSALSSQHQA [HIP-4.40]
- IC50 [3]: 2400 nM

Compound: SLQKRGIVEELVARSE [HIP-4.18]
- IC50 [3]: 1800 nM

Compound: VCGERGFFEELVARSE [HIP-4.1]
- IC50 [3]: 2800 nM
